US8802433B2, “Macrophage phagocytosis-activating composition and/or composition promoting cytokine production in macrophages” (Aureo Co., Ltd., priority 2009, dated 2014)

Key:
macrophage-like cells = test: TNF-α secretion from macrophage-like cells (ELISA); assay type: cell-based, human; conditions: added independently or in combination; ELISA of culture fluid
From the text: Since the increase in phagocytosis of macrophage-like cells by the Aureobasidium culture fluid or Compound 1 was inferred to be the result of activity induction in the macrophage-like cells, it was attempted to see if it is true. Specifically, regarding TNF-α, a type of cytokines released by activity induction, how much this substance was secreted into a culture fluid of the macrophage-like cells to which the Aureobasidium culture fluid, Compound 1, or the Aureobasidium culture fluid plus Compound 1 was added was measured by ELISA according to an ordinary method.

[1] = system: THP-1 cells differentiated into macrophage-like cells; test: Cytokine gene expression in macrophage-like cells (RT-PCR, agarose gel electrophoresis); assay type: cell-based, human; conditions: 7 hours, compared to group a (control)
Description: Regarding TNF-α, IL-6, IL-12B, and IL-18, cytokines released when macrophage-like cells underwent activity induction, how much mRNA for these substances expressed in the macrophage-like cells to which the Aureobasidium culture fluid, Compound 1, or the Aureobasidium culture fluid plus Compound 1 was added was measured by RT-PCR according to an ordinary method. Specifically, first, the THP-1 cells differentiated into macrophage-like cells by the method of Test Example 1 were washed twice with PBS to remove undifferentiated THP-1 cells, and then divided into 9 groups, group a, group b, group c, group d, group e, group f, group g, group h, and group i. Subsequently, the Aureobasidium culture fluid and/or Compound 1 was added to each group so as to have the final concentrations as follows, and the mixture was incubated for 7 hours. Next, each group was washed with PBS, thereafter, 1 mL of Trizol (Invitrogen) was added to each, and the mixture was well suspended and left at room temperature for 5 minutes. […] After left at room temperature for 2 minutes, the mixture was centrifuged at 12000×g at 4° C. for 10 minutes. After centrifugation, 400 μL of the upper layer was collected and transferred to a new Eppendorf tube for 1.5 mL, and 500 μL of 2-propanol (Wako) was added and stirred, and then left at room temperature for 5 minutes. […] Thereafter, the mixture was centrifuged at 12000×g at 4° C. for 10 minutes. After centrifugation, the upper layer was discarded, 75% ethanol was added to the precipitate, and the mixture was centrifuged at 12000×g at 4° C. for 10 minutes. After centrifugation, the upper layer was discarded, and the resultant was suspended in 20 μL of milliQ water, thereby collecting the total mRNA. Subsequently, using the total mRNA of each group as a template, RT-PCR was performed using TaKaRa RNA PCR Kit (AMV) Ver 3.0 (TaKaRa), to prepare a template cDNA of each sample. The RT-PCR reaction solution composition and RT-PCR reaction conditions are as described below. […] RT reaction conditions: after reaction at 42° C. for 30 minutes, respective reactions at 95° C. for 5 minutes and 5° C. for 5 minutes were performed for 1 cycle using a thermal cycler (Bio Flux). Subsequently, PCR was performed using the template cDNA of each group as a template, to amplify each cDNA of TNF-α, IL-6, IL-12B, IL-18, and glyceraldehyde-3-phosphate dehydrogenase (GAPDH). Primers, the PCR reaction solution composition, and PCR reaction conditions are as described below. PCR reaction solution composition: 5×PCR buffer 10 μL, milliQ 28.75 μL, Ex Taq 0.25 μL, sense primer 0.5 μL, antisense primer 0.5 μL, whole amount of template cDNA of each sample. PCR reaction conditions: after reaction at 94° C. for 2 minutes, with respective reactions at 94° C. for 30 seconds, 60° C. for 30 seconds, and 72° C. for 1 minute as 1 cycle, 35 cycles were performed. Thereafter, the amount of PCR reaction product was confirmed by performing agarose gel electrophoresis according to the conventional method, whereby the expression levels of mRNA for TNF-α, IL-6, IL-12B, IL-18, and glyceraldehyde-3-phosphate dehydrogenase (GAPDH) were confirmed.

[2] = system: THP-1 cells differentiated into macrophage-like cells; test: Ability of macrophage-like cells to phagocytose polystyrene beads; assay type: cell-based, human; conditions: 500-fold vs 1000-fold dilution; 1 μM vs 10 μM
Description: THP-1 cells (refer to FIG. 1 (A)) were seeded in a 24-well plate (Becton Dickinson Labware, Franklin Lakes, N.J.) at 2×10^5 cells/mL per well, and phorbol 12-myristate 13-acetate (PMA) (Wako) was added to each well so as to have a final concentration of 160 nM, and incubated at 37° C. under 5% CO2 for 72 hours, to give macrophage-like cells (refer to FIG. 1 (B)). After incubation, the cells were washed twice with sterilized PBS in order to remove undifferentiated THP-1 cells, and a fresh medium was added thereto, and the mixture was subjected to an experiment. The THP-1 cells differentiated into macrophage-like cells were prepared in a 24-well plate by the method of Test Example 1. Thereto were each added 500-fold and 1000-fold dilutions as final concentration of an Aureobasidium culture fluid, and the mixture was incubated for 4 hours. […] Thereafter, beads with a diameter of 10 μm were added to each well at a final concentration of 2 μL/mL (Trade name “Polybeads dyed violet” manufactured by Polysciences, Inc.), and the mixture was incubated for 3 hours to allow phagocytosis of the beads by the cells. After the incubation, each well was washed 3 times with sterilized PBS in order to remove beads that were not phagocyted. […] The number of beads phagocyted by the macrophage-like cells was measured with a phase contrast microscope. […]

in vitro = assay type: cell-based; conditions: human
Description: In the following Test Examples, the human monocytic leukemia cell line THP-1 or human leukemia T cell line, Jurkat cell line was incubated at 37° C. under 5% CO2 for culture in the RPMI 1640 medium (containing 10% fetal bovine serum (FBS), 75 mg/L kanamycin, and 3.5 μL/L 2-mercaptoethanol).
In order to study the cytotoxicity of 5-FU on Jurkat cells, 5-FU was studied by MTT method. Jurkat cells prepared as 2.0×10^5 cells/mL were placed in a 96-well plate (Corning). 5-FU was added thereto so as to have final concentrations of 0, 10, 100, and 1000 μM, and the cells were then exposed thereto in a CO2 incubator at 37° C. for 24 hours. At the time point of the exposure over 23 hours, 10 μL of 3-[4,5-dimethylthiazol-2-yl]-2,5-diphenyltet-razolium bromide (MTT solution) (Wako) was added to each well, and the cells were then exposed thereto at 37° C. for 1 hour. After the exposure, the mixture was centrifuged at 1200 rpm for 5 minutes, the supernatant was discarded, 100 μL per well of DMSO was added, and the mixture was measured for absorbance at 570 nm using a microplate reader. […] Therefore, DMSO was added to dissolve the formazan precipitate, and the absorbance of the solution was measured at 570 nm. When the cells are alive, formazan is produced, and thus the solution can be measured at 570 nm.

Jurkat cells = test: Exposure of phosphatidylserine in apoptotic Jurkat cells (Annexin V / propidium iodide, flow cytometry); assay type: cell-based, human; conditions: Jurkat cells exposed to 250 μM 5-FU (250 μM or 500 μM tested), 24 hours
Description: Whether the cytotoxicity of 5-FU on Jurkat cells was caused by apoptosis was studied. In early apoptosis, phosphatidylserine (PS) localized on the inside of cell membrane exposes to the outside. PS is a molecule also relating to the recognition and phagocytosis of apoptotic cells by macrophages. The PS exposure is measured, whereby induction of early apoptosis can be confirmed. In late apoptosis, the cell membrane breaks, and the internal components leak out thereof. Therefore, the cells are combined with propidium iodide (PI) which is a membrane impermeable fluorescent dye, whereby the late apoptotic cells and early apoptotic cells can be clearly separated (refer to FIG. 3).

In the case of `CCOCc1nc2c(N)nc3ccccc3c2n1CC(C)(C)O` [Compound 1, 4-Amino-2-(ethoxymethyl)-a,a-dimethyl-1H-imidazo[4,5-c]quinoline-1-ethanol], the “TNF-α secreted as compared to the case of adding nothing” value (macrophage-like cells) is reported as “larger amount”, the “expression level of mRNA for IL-12B” value ([1]; group b: Compound 1 1 μM) is reported as “increased” and the “expression level of mRNA for IL-18” value ([1]; group b: Compound 1 1 μM) is reported as “increased”. The “expression level of mRNA for TNF-α” value ([1]; group b: Compound 1 1 μM) was “increased”, the “expression level of mRNA for IL-6” value ([1]; group c: Compound 1 10 μM) was “increased” and the “expression level of mRNA for IL-12B” value ([1]; group c: Compound 1 10 μM) was “increased”. For the same compound, the “expression level of mRNA for IL-18” value ([1]; group c: Compound 1 10 μM) was “increased” and the “working concentration giving higher phagocytosis of polystyrene beads” value [2] was “higher for 1 μM”.

For `O=c1[nH]cc(F)c(=O)[nH]1` [Compound 5-FU, 5-fluorouracil], the IC50 at 24 h (in vitro) was 450 µM and the “PS exposure (early apoptosis)” value (Jurkat cells) was “much PS exposure”.
